Patent US4873243A, “Derivatives of 3-imino-pyridazine, process for obtaining them and pharmaceutical compositions containing them” (SANOFI, priority 1985, dated 1989)
Where a name gives a salt, the structure may show the parent alone. Read-outs that look alike come from different tables or passages of the source.

Columns and labels:
mouse = assay: Acute toxicity in the mouse; assay type: in vivo; settings: 100 mg/kg intraperitoneal
Description: The products according to the invention may be administered by the oral route or by the injectable route.

[1] = biological target: GABA post-synaptic receptor; assay: Displacement of tritiated GABA from its post-synaptic receptor (Enna and Snyder method), suspension of synaptic membrane; assay type: binding; settings: in vitro, tritiated GABA 2.9 nM final concentration
Protocol: The therapeutic activity of the products according to the invention has been studied.
The study was carried out in accordance with the method of ENNA and SNYDER (Brain Research 100, 81-97, 1975). The experiment was carried out in vitro in the presence of a suspension of synaptic membrane and tritiated GABA at a final concentration of 2.9 nM.
The results are expressed in Inhibit Concentration 50 (IC50), i.e. the micromolar concentration which inhibits 50% of the fixation of the GABA on its post-synaptic receptor.

[2] = system: reserpine-induced ptosis in the mouse; assay: Antagonism of reserpine-induced ptosis in the mouse; assay type: in vivo; settings: 100 mg/kg intraperitoneal; reserpine 2 mg/kg intravenous at the same time; female mice; one hour after administration
Protocol: The anti-depressant properties of the products according to the invention have been studied in the animal. The anti-depressant activity was assessed in the test of antagonism of reserpine-induced ptosis in the mouse.
The study was carried out on batches of 10 female mice weighing 20±1 g. The products to be studied were administered by the intraperitoneal route at the same time as the reserpine by the intravenous route at the dose of 2 mg/kg.
In parallel, a control batch received only the vehicle of administration of the product to be studied and the reserpine.
One hour after administration, the animals were observed individually. All the animals of the control batch presented ptosis. For the treated batches, the animals not presenting ptosis were counted and the percentage of the animals where the ptosis was antagonized were determined.

[3] = read-out: IC50 (concentration which inhibits 50% of the fixation of the GABA on its post-synaptic receptor)

Row | SMILES | IC50 [1, 3] [nM] | other results
1 | Cc1cc(-c2ccccc2)nn(Cc2cc(O)no2)c1=N [SR 95538, 2-[(3-hydroxy 5-isoxazolyl)methyl]-3-imino-4-methyl-6-phenyl-2,3-dihydro-pyridazine, hydrobromide] | 1000 | sign of acute toxicity (mouse): no sign of acute toxicity; animals in which ptosis was antagonized (inhibits ptosis) [2]: 30%
2 | N=c1ccc(-c2ccccc2)nn1Cc1cc(O)no1 [SR 95812] |  | IC50 ([1]; listed as 95812, read-out: IC50 (concentration which inhibits 50% of the fixation of the GABA on its post-synaptic receptor)): 1200 nM
3 | N=c1ccc(-c2ccccc2)nn1Cc1cc(O)no1 [SR 95884] |  | IC50 ([1]; listed as 95884, read-out: IC50 (concentration which inhibits 50% of the fixation of the GABA on its post-synaptic receptor)): 1800 nM
4 | N=c1ccc(-c2ccsc2)nn1Cc1cc(O)no1 [SR 95893] | 1600 | 

More lines, main results first:

Row | IC50 [1, 3] [nM] | SMILES | other results
5 | 150 | N=c1ccc(-c2ccc(Cl)cc2)nn1Cc1cc(O)ns1 [SR 95885, 2-[(3-hydroxy-5-isothiazolyl)methyl]-3-imino-6-(4-chloro-phenyl)-2,3-dihydro-pyridazine, hydrobromide] | 
6 | 6600 | Cc1nn(Cc2cc(O)ns2)c(=N)cc1-c1ccccc1 [SR 95886] | 
7 | 120 | N=c1c2ccccc2c(-c2ccccc2)nn1Cc1cc(O)no1 [SR 95894] | 
8 | 75 | N=c1ccc(-c2ccc3c(c2)OCO3)nn1Cc1cc(O)no1 [SR 95895] | 
